We go through three molecules from patent publication US20080146626A1, “USE OF EPOTHILONES IN THE TREATMENT OF OSTEOPOROSIS AND RELATED DISEASES” (priority 2006, published 2008).

Values joined by “and” are separate entries in the source; they are usually repeats but may differ in a detail not shown here. Identical values can stand only once.

The test system of series [1] is human osteoclasts. Nature of the series: cytotoxicity in human osteoclast activity assay (luminescence released from dying cells). The settings on record: day 10; for luminescence released from dying cells during the culture period: 1.0 μM E64; for Cytotoxicity, % compared with baseline group: baseline mean = 100%. As to the method: (§1) The bone resorption assay is performed according to the above described Standard Operation Procedure. Shortly, human bone marrow-derived stem cells are suspended to culture medium and allowed to attach to bovine bone slices. The bone slices are transferred into 96-well tissue culture plates containing culture medium with appropriate amounts of important growth factors favoring osteoclast differentiation, including M-CSF, RANK-ligand and TGF-beta. The cells are incubated in a CO2 incubator in humidified atmosphere of 95% air and 5% carbon dioxide at 37° C. At day 7 when osteoclast differentiation is completed, the culture medium is replaced with culture medium containing conditions favoring osteoclast activity, and the test compounds are added. The cell culture is continued for an additional three days, during which the formed mature osteoclasts are allowed to resorb bone in the presence of vehicle, control inhibitor (E64) or test compounds at different concentrations. Tartrate-resistant acid phosphatase isoform 5b activity (TRACP 5b) is measured from the culture medium collected at day 7 using the BoneTRAP® assay (SBA-Sciences, Oulu, Finland). Medium TRACP 5b activity describes the number of osteoclasts formed in each well during the differentiation period. At the end of the culture period, C-terminal cross-linked telopeptides of type I collagen (CTX) released from the bone slices are quantitated as an index of bone resorption using CrossLaps® for culture assay (Nordic Bioscience, Herlev, Denmark). The results are expressed as the resorption index (CTX at day 10/TRACP 5b at day 7), which describes the mean activity of a single osteoclast. When necessary, the ToxiLight® assay (Cambrex, East Rutherford, N.J., USA) is used to detect cytotoxic effects of test compounds.
Two separate experiments were performed in this study, an osteoclast differentiation assay and an osteoclast activity assay. In the osteoclast differentiation assay, osteoclast precursor cells were cultured for 7 days in the presence of the test compound, and TRACP 5b released into the culture medium was determined at day 7 as an index of the number of osteoclasts formed. Cytotoxicity was determined by quantitating the amount of dying cells from the culture medium at day 2. In the osteoclast activity assay, the test compounds were added after osteoclast differentiation was completed at day 7, and the mature osteoclasts were cultured for an additional 3 days, allowing them to resorb bone. […] Medium CTX was measured at day 10 to quantitate bone resorption during days 7-10, and the results are expressed as the resorption index CTX at day 10/TRACP 5b at day 7, which describes the mean resorbing activity of a single osteoclast. Cytotoxicity was determined by quantitating the amount of dying cells from the culture medium at day 10.
The test compounds were added after osteoclast differentiation was completed at day 7, and the mature osteoclasts were cultured for an additional 3 days, allowing them to resorb bone. […] Medium CTX was measured at day 10 to quantitate bone resorption during days 7-10, and the results are expressed as the resorption index CTX at day 10/TRACP 5b at day 7, which describes the mean osteoclast activity. Cytotoxicity was determined by quantitating the amount of dying cells from the culture medium at day 10.

Series [2] concerns human osteoclasts. Nature of the series: osteoclast activity assay (bone resorption on bovine bone slices, CTX/TRACP 5b).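 As to concentration of CTX released from bone collagen into the culture medium: CTX concentration in nM.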 In kind it is cell-based. The settings on record: for resorption index CTX at day 10/TRACP 5b at day 7 / concentration of CTX released from bone collagen into the culture medium: 1.0 μM E64; for concentration of CTX released from bone collagen into the culture medium: resorption phase days 7-10. As to the method: The objective of this study is to investigate the effects of selected test compounds selected on resorbing activity of human osteoclasts in vitro. Bone resorption is studied using a model where human osteoclast precursor cells derived from bone marrow are cultured for 7 days on bovine bone slices and allowed to differentiate into bone-resorbing osteoclasts. At day 7, the culture medium is changed, the test compounds are added, and the formed mature osteoclasts are allowed to resorb bone in an additional 3-day culture period. Tartrate-resistant acid phosphatase isoform 5b activity (TRACP 5b) is measured from the culture medium collected at day 7 as an index of the number of osteoclasts formed in each well during the differentiation period. After the totally 10 days culture period, C-terminal cross-linked telopeptides of type I collagen (CTX) are quantitated from the culture medium as an index of bone resorption. The results are expressed as the resorption index (CTX at day 10/TRACP 5b at day 7), which describes the mean activity of a single osteoclast. In each test, a baseline group without test compounds is included to obtain a baseline value. […] The test system can also be modified by adding the test compounds at the beginning of the culture period to study if the test compounds affect osteoclast differentiation. Osteoprotegerin is used as a reference inhibitor of osteoclast differentiation in such cultures.
Used herein is a method where osteoclast precursor cells derived from human bone marrow are cultured on bovine bone slices. The cells are first allowed to differentiate into mature bone-resorbing osteoclasts, and the formed osteoclasts are then allowed to resorb bone. The system is ideally suitable for determining the effects of test compounds on bone resorption in vitro. Test compounds are added into the cell cultures after the differentiation period, and their effect on the resorbing activity of mature osteoclasts is determined.
as §1
Two separate experiments were performed in this study, an osteoclast differentiation assay and an osteoclast activity assay.

Series [3] has as its system human osteoclast precursor cells derived from bone marrow. Nature of the series: osteoclast differentiation assay (medium TRACP 5b at day 7). It is filed as cell-based. The settings on record: 100 ng/ml OPG, in U/L. As to the method: The objective of this study is to investigate the effects of selected test compounds selected on resorbing activity of human osteoclasts in vitro. Bone resorption is studied using a model where human osteoclast precursor cells derived from bone marrow are cultured for 7 days on bovine bone slices and allowed to differentiate into bone-resorbing osteoclasts. […] In each test, a baseline group without test compounds is included to obtain a baseline value. […] The test system can also be modified by adding the test compounds at the beginning of the culture period to study if the test compounds affect osteoclast differentiation. Osteoprotegerin is used as a reference inhibitor of osteoclast differentiation in such cultures.
Appropriate dilutions were made from the stock solution to obtain the desired test concentrations (0.1 nM, 1 nM and 10 nM in osteoclast differentiation assay and 1 nM, 10 nM and 100 nM in osteoclast activity assay).

Where [4] appears, read: Homo sapiens, Osteoclast, read-out: Resorbing activity, % of activity compared with baseline group.

As to `CC(C)C[C@H](NC(=O)[C@H]1O[C@@H]1C(=O)O)C(=O)NCCCCN=C(N)N` [Compound E64, reference compound], the “luminescence released from dying cells during the culture period” value was 1594 in the series with human osteoclasts [1] (Mean of 6 replicates); 1979 and 1666 and 1489 and 1568 and 1355 and 1507 in the series on human osteoclasts [1] (single replicate). Moreover, the “resorption index CTX at day 10/TRACP 5b at day 7” value was 0.45 in the series with human osteoclasts [2] (Mean of 6 replicates); 0.41 (2×) and 0.64 and 0.38 and 0.59 and 0.29 in the series on human osteoclasts [2] (single replicate). Besides, the “concentration of CTX released from bone collagen into the culture medium” value is 8.44 nM with human osteoclasts [2] (Mean of 6 replicates); 9.13 nM and 10.96 nM and 7.91 nM and 7.78 nM and 9.39 nM and 5.45 nM in the series on human osteoclasts [2] (single replicate).
For `CC(=O)O[C@H]1C(=O)[C@@]2(C)[C@H]([C@H](OC(=O)c3ccccc3)[C@]3(O)C[C@H](OC(=O)[C@H](O)[C@@H](NC(=O)c4ccccc4)c4ccccc4)C(C)=C1C3(C)C)[C@]1(OC(C)=O)CO[C@@H]1C[C@@H]2O` [Paclitaxel, paclitaxel, reference compound], the “Cytotoxicity, % compared with baseline group” value with human osteoclasts [1] (2.5 nM) worked out at 121%; with human osteoclasts [1] (5 nM), 99%; in the series on human osteoclasts [1] (10 nM), 121%; in the series with human osteoclasts [1] (20 nM) it was 116%; in the series on human osteoclasts [1] (50 nM), 131%; in the series on human osteoclasts [1] (100 nM) it was 120%. In the series on human osteoclasts [1] (200 nM), the “Cytotoxicity, % compared with baseline group” value is recorded as 125%. In addition, in the series on human osteoclasts [2] (setting [4]), the activity at 0.0025 µM was 109%. The activity at 0.005 µM in the series on human osteoclasts [2] (setting [4]) was found to be 98%. Besides, the activity at 0.01 µM with human osteoclasts [2] (setting [4]) was 87%. For the same molecule, the activity at 0.02 µM with human osteoclasts [2] (setting [4]) came out at 95%. In addition, the activity at 0.05 µM with human osteoclasts [2] (setting [4]) turned out to be 64%. Moreover, in the series with human osteoclasts [2] (setting [4]), the activity at 0.1 µM came out at 57%. Also, in the series with human osteoclasts [2] (setting [4]), the activity at 0.2 µM turned out to be 72%.

B1: OPG: Osteoprotegerin, reference inhibitor of osteoclast differentiation (PeproTech 450-14) (protein, UniProt O00300 22-401, looked up)
Tumor necrosis factor …: ETFPPKYLHYDEETSHQLLCDKCPPGTYLKQHCTAKWKTVCAPCPDHYYTDSWHTSDECLYCSPVCKELQYVKQECNRTHNRVCECKEGRYLEIEFCLKHRSCPPGFGVVQAGTPERNTVCKRCPDGFFSNETSSKAPCRKHTNCSVFGLLLTQKGNATHDNICSGNSESTQKCGIDVTLCEEAFFRFAVPTKFTPNWLSVLVDNLPGTKVNAESVERIKRQHSSQEQTFQLLKLWKHQNKDQDIVKKIIQDIDLCENSVQRHIGHANLTFEQLRSLMESLPGKKVGAEDIEKTIKACKPSDQILKLLSLWRIKNGDQDTLKGLMHALKHSKTYHFPKTVTQSLKKTIRFLHSFTMYKLYQKLFLEMIGNQVQSVKISCL
B1: the “medium TRACP 5b activity at day 7” value in series [3] (Mean of 6 replicates) is 8.59; in series [3] (single replicate) it was 4.46 and 10.67 and 10.53 and 10.19 and 5.70 and 10.00.
